Measurements published in patent US12404279B2, “Deubiquitinase inhibitors and methods of use thereof” (Molecure S.A., priority 2021, dated 2025).
Counter-ions that a name gives are not always drawn.

Each compound was assayed against full-length USP7 (Homo sapiens (Human), UniProt Q93009) (assay: Enzymatic assay to determine IC50 of USP7 inhibitors (Ubiquitin-Rhodamine 110 cleavage)). Details: 0.5 nM USP7, 0.5 μM Ubiquitin-Rhodamine 110, 45 min at 37° C.
Format: biochemical
Procedure, shortened: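 Full-length USP7 (0.5 nM) in 50 mM HEPES pH 7.5, 150 mM NaCl, 1 mM DTT, 1 mg/ml BSA, 0.05% Tween20 was preincubated 15 min with DTT at room temperature before compound addition.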

full-length USP7, sequence (Q93009 whole entry): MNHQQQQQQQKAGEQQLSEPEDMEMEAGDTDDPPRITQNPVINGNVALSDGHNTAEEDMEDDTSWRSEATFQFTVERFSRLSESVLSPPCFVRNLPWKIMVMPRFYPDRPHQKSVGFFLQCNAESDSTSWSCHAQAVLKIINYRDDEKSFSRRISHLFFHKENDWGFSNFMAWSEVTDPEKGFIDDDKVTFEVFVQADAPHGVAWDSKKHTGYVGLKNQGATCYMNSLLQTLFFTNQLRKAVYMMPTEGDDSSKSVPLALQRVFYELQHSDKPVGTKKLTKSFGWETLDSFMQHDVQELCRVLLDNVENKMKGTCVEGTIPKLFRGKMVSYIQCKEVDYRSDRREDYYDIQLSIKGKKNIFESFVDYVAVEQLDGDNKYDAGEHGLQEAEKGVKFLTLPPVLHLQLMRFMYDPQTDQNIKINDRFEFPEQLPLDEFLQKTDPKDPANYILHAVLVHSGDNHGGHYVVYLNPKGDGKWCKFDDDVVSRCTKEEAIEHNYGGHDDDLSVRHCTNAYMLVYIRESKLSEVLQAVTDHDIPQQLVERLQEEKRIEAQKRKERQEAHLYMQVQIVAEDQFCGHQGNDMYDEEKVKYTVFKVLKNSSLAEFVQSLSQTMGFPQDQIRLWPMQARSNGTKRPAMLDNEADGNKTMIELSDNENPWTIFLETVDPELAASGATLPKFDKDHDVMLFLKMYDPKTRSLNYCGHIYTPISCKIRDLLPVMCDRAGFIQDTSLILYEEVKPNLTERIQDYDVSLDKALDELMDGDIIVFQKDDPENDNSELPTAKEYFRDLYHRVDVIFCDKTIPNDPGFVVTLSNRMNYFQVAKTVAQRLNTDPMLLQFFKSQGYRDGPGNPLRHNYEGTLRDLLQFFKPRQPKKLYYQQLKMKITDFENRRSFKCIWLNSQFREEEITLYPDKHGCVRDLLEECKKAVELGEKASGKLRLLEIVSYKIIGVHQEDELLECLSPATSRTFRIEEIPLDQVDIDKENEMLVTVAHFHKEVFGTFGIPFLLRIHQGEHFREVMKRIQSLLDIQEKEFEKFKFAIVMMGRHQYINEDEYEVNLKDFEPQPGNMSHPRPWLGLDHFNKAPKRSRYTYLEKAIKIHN

IC50 [nM] | SMILES
< 500 | Cc1cc(C(F)(F)F)nc(-c2ccnc3cc(CN4C(=O)C5C(C4=O)C5(C)C)sc23)c1C(=O)N1CCC2(CCCN2)C1 (centres unmarked) [Example 71, 6,6-dimethyl-3-((7-(4-methyl-3-(1,7-diazaspiro[4.4]nonane-7-carbonyl)-6-(trifluoromethyl)pyridin-2-yl)thieno[3,2-b]pyridin-2-yl)methyl)-3-azabicyclo[3.1.0]hexane-2,4-dione dihydrochloride]
< 500 | CCN[C@H]1CCN(C(=O)c2c(C)cc(C(F)(F)F)nc2-c2ccnc3cc(CN4C(=O)C5C(C4=O)C5(C)C)sc23)C1 (stereo partly drawn) [Example 73, 3-((7-(3-((S)-3-(ethylamino)pyrrolidine-1-carbonyl)-4-methyl-6-(trifluoromethyl)pyridin-2-yl)thieno[3,2-b]pyridin-2-yl)methyl)-6,6-dimethyl-3-azabicyclo[3.1.0]hexane-2,4-dione dihydrochloride]
< 500 | Cc1cc(C(F)(F)F)nc(-c2ccnc3cc(CN4C(=O)C5C(C4=O)C5(C)C)sc23)c1C(=O)N1CC[C@H](NC(C)C)C1 (stereo partly drawn) [Example 74, 3-((7-(3-((S)-3-(isopropylamino)pyrrolidine-1-carbonyl)-4-methyl-6-(trifluoromethyl)pyridin-2-yl)thieno[3,2-b]pyridin-2-yl)methyl)-6,6-dimethyl-3-azabicyclo[3.1.0]hexane-2,4-dione dihydrochloride]
1000 to 10000 | Cc1cc(C(F)(F)F)nc(-c2ccnc3cc(CN4C(=O)C5C(C4=O)C5(C)C)sc23)c1C(=O)N[C@H]1CCNC1 (stereo partly drawn) [Example 75, 2-(2-((6,6-dimethyl-2,4-dioxo-3-azabicyclo[3.1.0]hexan-3-yl)methyl)thieno[3,2-b]pyridin-7-yl)-4-methyl-N—((S)-pyrrolidin-3-yl)-6-(trifluoromethyl)nicotinamide dihydrochloride]
< 500 | Cc1cc(C(F)(F)F)nc(-c2ccnc3cc(CN4C(=O)C5C(C4=O)C5(C)C)sc23)c1C(=O)N1CCNCC1 (centres unmarked) [Example 76, 6,6-dimethyl-3-((7-(4-methyl-3-(piperazine-1-carbonyl)-6-(trifluoromethyl)pyridin-2-yl)thieno[3,2-b]pyridin-2-yl)methyl)-3-azabicyclo[3.1.0]hexane-2,4-dione dihydrochloride]
< 500 | Cc1cc(C(F)(F)F)nc(-c2ccnc3cc(CN4C(=O)C5C(C4=O)C5(C)C)sc23)c1C(=O)N1CCNC[C@@H]1C (stereo partly drawn) [Example 78, 6,6-dimethyl-3-((7-(4-methyl-3-((S)-2-methylpiperazine-1-carbonyl)-6-(trifluoromethyl)pyridin-2-yl)thieno[3,2-b]pyridin-2-yl)methyl)-3-azabicyclo[3.1.0]hexane-2,4-dione dihydrochloride]
< 500 | Cc1cc(C(F)(F)F)nc(-c2ccnc3cc(CN4C(=O)C5C(C4=O)C5(C)C)sc23)c1C(=O)N1CCN(C)C[C@@H]1C (stereo partly drawn) [Example 79, 3-((7-(3-((S)-2,4-dimethylpiperazine-1-carbonyl)-4-methyl-6-(trifluoromethyl)pyridin-2-yl)thieno[3,2-b]pyridin-2-yl)methyl)-6,6-dimethyl-3-azabicyclo[3.1.0]hexane-2,4-dione hydrochloride]
< 500 | Cc1cc(C(F)(F)F)nc(-c2ccnc3cc(CN4C(=O)C5C(C4=O)C5(C)C)sc23)c1C(=O)N1CCN(C)CC1 (centres unmarked) [Example 80, 6,6-dimethyl-3-((7-(4-methyl-3-(4-methylpiperazine-1-carbonyl)-6-(trifluoromethyl)pyridin-2-yl)thieno[3,2-b]pyridin-2-yl)methyl)-3-azabicyclo[3.1.0]hexane-2,4-dione dihydrochloride]
< 500 | Cc1cc(C(F)(F)F)nc(-c2ccnc3cc(CN4C(=O)C5C(C4=O)C5(C)C)sc23)c1C(=O)N1CCC(F)(F)C1 (centres unmarked) [Example 83, 3-((7-(3-(3,3-difluoropyrrolidine-1-carbonyl)-4-methyl-6-(trifluoromethyl)pyridin-2-yl)thieno[3,2-b]pyridin-2-yl)methyl)-6,6-dimethyl-3-azabicyclo[3.1.0]hexane-2,4-dione hydrochloride]
500 to 1000 | Cc1cc(C(F)(F)F)nc(-c2ccnc3cc(CN4C(=O)C5C(C4=O)C5(C)C)sc23)c1C(=O)N1CCOCC1 (centres unmarked) [Example 84, 6,6-dimethyl-3-((7-(4-methyl-3-(morpholine-4-carbonyl)-6-(trifluoromethyl)pyridin-2-yl)thieno[3,2-b]pyridin-2-yl)methyl)-3-azabicyclo[3.1.0]hexane-2,4-dione hydrochloride]
> 10000 | Cc1nc(C(F)(F)F)cc(-c2ccnc3cc(CN4C(=O)C5C(C4=O)C5(C)C)sc23)c1NC(=O)C1CC(F)(F)C1 (centres unmarked) [Example 86, N-(4-(2-((6,6-dimethyl-2,4-dioxo-3-azabicyclo[3.1.0]hexan-3-yl)methyl)thieno[3,2-b]pyridin-7-yl)-2-methyl-6-(trifluoromethyl)pyridin-3-yl)-3,3-difluorocyclobutane-1-carboxamide hydrochloride]
1000 to 10000 | Cc1nc(C(F)(F)F)cc(-c2ccnc3cc(CN4C(=O)C5C(C4=O)C5(C)C)sc23)c1NC(=O)C1CCNCC1 (centres unmarked) [Example 87, N-(4-(2-((6,6-dimethyl-2,4-dioxo-3-azabicyclo[3.1.0]hexan-3-yl)methyl)thieno[3,2-b]pyridin-7-yl)-2-methyl-6-(trifluoromethyl)pyridin-3-yl)piperidine-4-carboxamide hydrochloride]
< 500 | Cc1nc(C(F)(F)F)cc(-c2ccnc3cc(CN4C(=O)C5C(C4=O)C5(C)C)sc23)c1CC1CCNC1 (centres unmarked) [Example 89, 6,6-dimethyl-3-((7-(2-methyl-3-(pyrrolidin-3-ylmethyl)-6-(trifluoromethyl)pyridin-4-yl)thieno[3,2-b]pyridin-2-yl)methyl)-3-azabicyclo[3.1.0]hexane-2,4-dione hydrochloride]
< 500 | Cc1cc(C(F)(F)F)nc(-c2ccnc3cc(CN4C(=O)C5C(C4=O)C5(C)C)sc23)c1C[C@H]1CNCCO1 (stereo partly drawn) [Example 95, 6,6-dimethyl-3-((7-(4-methyl-3-(((S)-morpholin-2-yl)methyl)-6-(trifluoromethyl)pyridin-2-yl)thieno[3,2-b]pyridin-2-yl)methyl)-3-azabicyclo[3.1.0]hexane-2,4-dione dihydrochloride]
< 500 | Cc1cc(C(F)(F)F)nc(-c2ccnc3cc(CN4C(=O)C5C(C4=O)C5(C)C)sc23)c1C[C@@H]1CNCCO1 (stereo partly drawn) [Example 96, 6,6-dimethyl-3-((7-(4-methyl-3-(((R)-morpholin-2-yl)methyl)-6-(trifluoromethyl)pyridin-2-yl)thieno[3,2-b]pyridin-2-yl)methyl)-3-azabicyclo[3.1.0]hexane-2,4-dione dihydrochloride]
1000 to 10000 | Cc1cc(C(F)(F)F)nc(-c2ccnc3cc(CN4C(=O)C5C(C4=O)C5(C)C)sc23)c1C[C@H]1CN(C)CCO1 (stereo partly drawn) [Example 97, 6,6-dimethyl-3-((7-(4-methyl-3-(((S)-4-methylmorpholin-2-yl)methyl)-6-(trifluoromethyl)pyridin-2-yl)thieno[3,2-b]pyridin-2-yl)methyl)-3-azabicyclo[3.1.0]hexane-2,4-dione dihydrochloride]
< 500 | Cc1cc(C(F)(F)F)nc(-c2ccnc3cc(CN4C(=O)C5C(C4=O)C5(C)C)sc23)c1C[C@@H]1CN(C)CCO1 (stereo partly drawn) [Example 98, 6,6-dimethyl-3-((7-(4-methyl-3-(((R)-4-methylmorpholin-2-yl)methyl)-6-(trifluoromethyl)pyridin-2-yl)thieno[3,2-b]pyridin-2-yl)methyl)-3-azabicyclo[3.1.0]hexane-2,4-dione dihydrochloride]
< 500 | CC1(C)C2C(=O)N(Cc3cc4nccc(-c5cc(C(F)(F)F)cnc5C[C@@H]5CNCCO5)c4s3)C(=O)C21 (stereo partly drawn) [Example 99, 6,6-dimethyl-3-((7-(2-(((R)-morpholin-2-yl)methyl)-5-(trifluoromethyl)pyridin-3-yl)thieno[3,2-b]pyridin-2-yl)methyl)-3-azabicyclo[3.1.0]hexane-2,4-dione 2,2,2-trifluoroacetate]
1000 to 10000 | Cc1nc(C(F)(F)F)cc(-c2ccnc3cc(CN4C(=O)C5C(C4=O)C5(C)C)sc23)c1CN1CCNCC1 (centres unmarked) [Example 102, 6,6-dimethyl-3-((7-(2-methyl-3-(piperazin-1-ylmethyl)-6-(trifluoromethyl)pyridin-4-yl)thieno[3,2-b]pyridin-2-yl)methyl)-3-azabicyclo[3.1.0]hexane-2,4-dione 2,2,2-trifluoroacetate]
1000 to 10000 | Cc1nc(C(F)(F)F)cc(-c2ccnc3cc(CN4C(=O)C5C(C4=O)C5(C)C)sc23)c1CN1CC(F)(F)C1 (centres unmarked) [Example 103, 3-((7-(3-((3,3-difluoroazetidin-1-yl)methyl)-2-methyl-6-(trifluoromethyl)pyridin-4-yl)thieno[3,2-b]pyridin-2-yl)methyl)-6,6-dimethyl-3-azabicyclo[3.1.0]hexane-2,4-dione 2,2,2-trifluoroacetate]
< 500 | Cc1cc(C(F)(F)F)nc(-c2ccnc3cc(CN4C(=O)C5C(C4=O)C5(C)C)sc23)c1C(=O)N1CC[C@H](C(F)F)C1 (stereo partly drawn) [Example 104, 3-((7-(3-((S)-3-(difluoromethyl)pyrrolidine-1-carbonyl)-4-methyl-6-(trifluoromethyl)pyridin-2-yl)thieno[3,2-b]pyridin-2-yl)methyl)-6,6-dimethyl-3-azabicyclo[3.1.0]hexane-2,4-dione hydrochloride]

Same assay, conditions: read-out: percent value of inhibition of USP7 activity

SMILES | inhibition at 1 µM [%]
Cc1ccnc(CC2CNCCO2)c1-c1ccnc2cc(CN3C(=O)C4C(C3=O)C4(C)C)sc12 (centres unmarked) [Example 93, 6,6-dimethyl-3-((7-(4-methyl-2-(morpholin-2-ylmethyl)pyridin-3-yl)thieno[3,2-b]pyridin-2-yl)methyl)-3-azabicyclo[3.1.0]hexane-2,4-dione 2,2,2-trifluoroacetate] | < 20
Cc1ccnc(-c2ccnc3cc(CN4C(=O)C5C(C4=O)C5(C)C)sc23)c1C(O)[C@@H]1CNCCO1 (stereo partly drawn) [Example 101, 3-((7-(3-(hydroxy((S)-morpholin-2-yl)methyl)-4-methylpyridin-2-yl)thieno[3,2-b]pyridin-2-yl)methyl)-6,6-dimethyl-3-azabicyclo[3.1.0]hexane-2,4-dione 2,2,2-trifluoroacetate] | < 20
